ChEMBL document CHEMBL4014311, “Discovery of a Hepatitis C Virus NS5B Replicase Palm Site Allosteric Inhibitor (BMS-929075) Advanced to Phase 1 Clinical Studies” (J Med Chem, 2017)
Active and inactive are the calls of the source. The calls are words filed in the database; no cut-off is given here.

How the values were obtained:
[1] = Inhibition of HCV genotype 1b NS5B replicase expressed in Escherichia coli BL21(DE3) using polyA/biotinylated oligo(dT12) as template/primer in presence of [3H]UTP after 60 mins by SPA assay; set-up: species or system Hepatitis C virus subtype 1b
[2] = test system: Hepatitis C virus; assay: Antiviral activity against HCV genotype 1b infected in human HuH7 cells after 3 days by luciferase reporter assay; format: functional, cell-based, Hepacivirus hominis
[3] = test system: Hepatitis C virus; assay: Antiviral activity against HCV genotype 1a infected in human HuH7 cells after 3 days by luciferase reporter assay; format: functional, cell-based, Hepacivirus hominis, subtype 1a
[4] = Inhibition of HCV genotype 1b NS5B replicase C316N mutant infected in human HuH7 cells assessed as reduction of viral replication after 3 days by luciferase reporter assay; format: cell-based, Hepatitis C virus subtype 1b; settings: Hepatitis C virus, Huh-7, 72 h
[5] = Metabolic stability in human liver microsomes assessed as parent compound remaining after 10 mins; format: ADME, microsome; settings: read-out: Stability
[6] = Metabolic stability in rat liver microsomes assessed as parent compound remaining after 10 mins; format: ADME, microsome; settings: read-out: Stability
[7] = target: T1, Cytochrome P450 2C8 (Homo sapiens, UniProt P10632); assay: Inhibition of microsomal CYP2C8 (unknown origin); format: ADME
T1 sequence (P10632 whole entry): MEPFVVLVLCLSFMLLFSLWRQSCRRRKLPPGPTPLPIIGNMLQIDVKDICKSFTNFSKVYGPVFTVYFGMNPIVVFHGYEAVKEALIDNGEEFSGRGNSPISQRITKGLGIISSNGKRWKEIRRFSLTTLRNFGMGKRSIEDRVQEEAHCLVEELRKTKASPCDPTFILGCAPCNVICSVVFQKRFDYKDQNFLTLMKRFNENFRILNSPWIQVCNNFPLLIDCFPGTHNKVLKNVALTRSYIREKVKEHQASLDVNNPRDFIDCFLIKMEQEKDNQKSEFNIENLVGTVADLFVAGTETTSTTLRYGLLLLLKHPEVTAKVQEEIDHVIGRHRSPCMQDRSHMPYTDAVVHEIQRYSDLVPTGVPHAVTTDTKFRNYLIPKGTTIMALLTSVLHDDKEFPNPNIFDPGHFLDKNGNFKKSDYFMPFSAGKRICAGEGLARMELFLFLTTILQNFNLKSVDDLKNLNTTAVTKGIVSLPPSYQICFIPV

[8] = target: Cytochrome P450 3A4 (Homo sapiens, UniProt P08684); assay: Inhibition of microsomal CYP3A4 (unknown origin); format: ADME
[9] = Half life in rat liver microsomes; format: ADME, microsome
[10] = Half life in monkey liver microsomes; format: ADME, Macaca mulatta, microsome; settings: rhesus monkey
[11] = Cytotoxicity against human HuH7 cells after 3 days by CellTiter-Blue assay; format: cell-based, Huh-7
[12] = Half life in human liver microsomes; format: ADME, microsome
[13] = test system: Hepatitis C virus; assay: Antiviral activity against HCV genotype 1b infected in human HuH7 cells at >= 10 times antiviral EC50 after 3 days by luciferase reporter assay; format: functional, cell-based; settings: Hepacivirus hominis
[14] = test system: Hepatitis C virus; assay: Antiviral activity against HCV genotype 1b infected in human HuH7 cells co-treated with daclatasvir after 3 days by luciferase reporter assay; format: functional, cell-based; settings: Hepacivirus hominis
[15] = Hepatitis C virus, genotype 1b, Huh-7, 72 h, read-out: EC50
[16] = Hepatitis C virus, subtype 1a, Huh-7, 72 h, read-out: EC50

Sequence of Cytochrome P450 3A4 (P08684 whole entry): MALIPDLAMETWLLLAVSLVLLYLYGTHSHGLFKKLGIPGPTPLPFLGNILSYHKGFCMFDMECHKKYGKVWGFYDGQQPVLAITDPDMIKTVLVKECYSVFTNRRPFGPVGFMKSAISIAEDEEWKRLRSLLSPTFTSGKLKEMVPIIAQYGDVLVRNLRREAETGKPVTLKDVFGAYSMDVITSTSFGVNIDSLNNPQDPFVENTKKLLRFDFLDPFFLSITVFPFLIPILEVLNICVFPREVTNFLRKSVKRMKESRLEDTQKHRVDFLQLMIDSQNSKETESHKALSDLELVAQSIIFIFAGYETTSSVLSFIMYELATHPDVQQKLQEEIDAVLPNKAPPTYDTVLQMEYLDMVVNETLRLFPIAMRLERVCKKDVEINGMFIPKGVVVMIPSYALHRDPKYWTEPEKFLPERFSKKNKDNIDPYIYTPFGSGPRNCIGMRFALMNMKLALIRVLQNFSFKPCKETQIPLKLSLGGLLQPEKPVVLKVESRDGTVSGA

Row | Structure (SMILES) | IC50 [1] | EC50 [2, 15] | EC50 [3, 16] | EC50 [4] | further results
1 | CNC(=O)c1c(-c2ccc(F)cc2)oc2ccc(-c3cc(C(=O)NC4(c5cnccn5)CC4)ccc3C)cc12 |  | 2.6 nM | 15 nM | 308 nM | 
2 | CNC(=O)c1c(-c2ccc(F)cc2)oc2ccc(-c3cc(C(=O)NC4(c5ccncn5)CC4)ccc3C)cc12 |  | 1.9 nM | 13 nM | 109 nM | 
3 | CNC(=O)c1c(-c2ccc(F)cc2)oc2ccc(-c3cccc(C(=O)OC)c3)cc12 | > 50000 nM |  |  |  | 
4 | CNC(=O)c1c(-c2ccc(F)cc2)oc2ccc(-c3cc(C(=O)NC4(c5cccnn5)CC4)ccc3C)cc12 |  | 2.9 nM | 17 nM | 139 nM | 
5 | CNC(=O)c1c(-c2ccc(F)cc2)oc2ccc(-c3cc(C(=O)NC4(c5ccncc5)CC4)ccc3C)cc12 |  | 0.83 nM | 8.3 nM | 63 nM | remaining at 10 min [5]: 11%; remaining at 10 min [6]: 11%; IC50 [7]: 26 nM; IC50 [8]: 73 nM
6 | CNC(=O)c1c(-c2ccc(F)cc2)oc2ccc(-c3cc(C(=O)NC4(c5ccccc5)CC4)ccc3OC)cc12 |  | 1.8 nM | 7.9 nM | 32 nM | 
7 | CNC(=O)c1c(-c2ccc(F)cc2)oc2ccc(-c3cc(C(=O)NC4(c5ccccc5)CC4)ccc3Cl)cc12 |  | 2.5 nM | 6.2 nM | 63 nM | 
8 | CNC(=O)c1c(-c2ccc(F)cc2)oc2ccc(-c3cc(C(=O)NC4(c5nc(C)no5)CC4)ccc3C)cc12 |  | 0.81 nM | 1.2 nM | 46 nM | half-life [9]: 10 min; half-life [10]: 25 min
9 | CNC(=O)c1c(-c2ccc(F)cc2)oc2ccc(-c3cc(C(=O)NC4(c5ccccc5)CC4)ccc3C)cc12 |  | 1.3 nM | 2.1 nM | 35 nM | CC50 at 72 h [11]: > 25 µM; remaining at 10 min [5]: 68%; remaining at 10 min [6]: 39%; half-life [12]: 11 min; IC50 [7]: 1500 nM; IC50 [8]: 2100 nM
10 | CNC(=O)c1c(-c2ccc(F)cc2)oc2ccc(-c3ccc(C(=O)O)cc3)cc12 | 650 nM | 4500 nM | > 20000 nM |  | 
11 | CNC(=O)c1c(-c2ccc(F)cc2)oc2ccc(-c3cc(C(=O)NC4(c5cccnc5)CC4)ccc3C)cc12 |  | 2.2 nM | 17 nM | 193 nM | remaining at 10 min [5]: 0.7%; remaining at 10 min [6]: 0.6%; IC50 [7]: 350 nM; IC50 [8]: 63 nM
12 | CNC(=O)c1c(-c2ccc(F)cc2)oc2ccc(-c3cccc(C(=O)NC4(c5ccccc5)CC4)c3)cc12 | 5.9 nM | 3.6 nM | 36 nM |  | 
13 | CNC(=O)c1c(-c2ccc(F)cc2)oc2ccc(-c3cccc(C(N)=O)c3)cc12 | 5700 nM | > 3700 nM |  |  | 
14 | C=C[C@@H]1C[C@]1(NC(=O)[C@@H]1C[C@@H](Oc2ncc(OC)c3ccc(Cl)cc23)CN1C(=O)[C@@H](NC(=O)OC(C)(C)C)C(C)(C)C)C(=O)NS(=O)(=O)C1CC1 |  |  |  |  | Activity [13]: Active; Activity [14]: Active
15 | CNC(=O)c1c(-c2ccc(F)cc2)oc2ccc(-c3cc(C(=O)NC4(c5ccccc5)CC4)ccc3F)cc12 |  | 3.6 nM | 16 nM | 150 nM | 

Continued, in another order:

Row | IC50 [1] | EC50 [2, 15] | EC50 [3, 16] | Structure (SMILES) | EC50 [4] | further results
16 | 41 nM | 18 nM | 240 nM | CNC(=O)c1c(-c2ccc(F)cc2)oc2ccc(-c3cccc(C(=O)NC(C)(C)C)c3)cc12 |  | 
17 | > 50000 nM |  |  | CNC(=O)c1c(-c2ccc(F)cc2)oc2ccc(-c3cccc(CO)c3)cc12 |  | 
18 | 1100 nM | 12000 nM | > 20000 nM | CNC(=O)c1c(-c2ccc(F)cc2)oc2ccc(-c3cccc(C(=O)O)c3)cc12 |  | 
19 | 190 nM | 98 nM | 630 nM | CNC(=O)c1c(-c2ccc(F)cc2)oc2ccc(-c3cccc(C(=O)NC(C)C)c3)cc12 |  | 
20 | 8 nM | 10 nM | 160 nM | CNC(=O)c1c(-c2ccc(F)cc2)oc2ccc(-c3cccc(C(=O)NC(C)(C)c4ccccc4)c3)cc12 |  | 
21 | 360 nM |  |  | CNC(=O)c1c(-c2ccc(F)cc2)oc2ccc(-c3ccc(C(=O)O)s3)cc12 |  | 
22 | > 50000 nM |  |  | CNC(=O)c1c(-c2ccc(F)cc2)oc2ccc(-c3ccccc3C(=O)O)cc12 |  | 
23 | 91 nM | 67 nM | 1800 nM | CNC(=O)c1c(-c2ccc(F)cc2)oc2ccc(-c3cccc(C(=O)NCc4ccccc4)c3)cc12 |  | 
24 | 120 nM | 76 nM | 1400 nM | CNC(=O)c1c(-c2ccc(F)cc2)oc2ccc(-c3cccc(C(=O)N(C)C(C)(C)C)c3)cc12 |  | 
25 | 780 nM | 330 nM | 1000 nM | CCNC(=O)c1cccc(-c2ccc3oc(-c4ccc(F)cc4)c(C(=O)NC)c3c2)c1 |  | 
26 | 3600 nM | 980 nM |  | CNC(=O)c1c(-c2ccc(F)cc2)oc2ccc(-c3ccc(C(=O)NC(C)(C)C)cc3)cc12 |  | 
27 | 26 nM | 54 nM | 600 nM | CNC(=O)c1c(-c2ccc(F)cc2)oc2ccc(-c3cccc(C(=O)NC(C)c4ccccc4)c3)cc12 (configuration not stated) |  | 
28 | 8400 nM |  |  | O=C(Nc1c(OCc2ccc(Cl)cc2)cccc1C(=O)O)c1ccccc1 |  | EC50 [2]: Not Active; EC50 [3]: Not Active
29 | 21000 nM | 14000 nM | > 11000 nM | CNC(=O)c1c(-c2ccc(F)cc2)oc2ccc(OC(C)C)cc12 |  | 
